Laboratory results published in the supplement of paper PMC11061612.

Assays:
[1] = compound: CC(=O)O[C@H]1C(=O)[C@@]2(C)[C@H]([C@H](OC(=O)c3ccccc3)[C@]3(O)C[C@H](OC(=O)[C@H](O)[C@@H](NC(=O)c4ccccc4)c4ccccc4)C(C)=C1C3(C)C)[C@]1(OC(C)=O)CO[C@@H]1C[C@@H]2O [Paclitaxel]; conditions: max 3 µM
How it was run: (§1)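 Cancer cell lines were seeded in 1536-well plates in 7.5 μl DMEM/F12 or RPMI with 10% FBS, held 24 hours at 37°C and 5% CO2, then dosed for 72 hours (final DMSO typically 0.2%). Viability was read by CellTiter-Glo 2.0 luminescence and scaled between blank-well and DMSO-well means. The single-agent IC50 comes from dose responses fitted to a two-parameter logistic curve with a non-linear mixed effects model.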

[2] = compound: CN(CC[C@H](CSC1=CC=CC=C1)NC2=C(C=C(C=C2)S(=O)(=O)NC(=O)C3=CC=C(C=C3)N4CCC(CC4)[C@H](C5=CC=CC=C5C6=CC=C(C=C6)Cl)O)S(=O)(=O)C(F)(F)F)CCO [AZD4320]; conditions: max 1 µM
How it was run: as §1

[3] = compound: O=c1[nH]cc(F)c(=O)[nH]1 [5-Fluorouracil]; conditions: max 20 µM
How it was run: as §1

[4] = compound: C=CCn1c(=O)c2cnc(Nc3ccc(N4CCN(C)CC4)cc3)nc2n1-c1cccc(C(C)(C)O)n1 [AZD1775]; conditions: max 3 µM
How it was run: as §1

[5] = compound: NC1(c2ccc(-c3nc4ccn5c(=O)[nH]nc5c4cc3-c3ccccc3)cc2)CCC1 [MK-2206]; conditions: max 10 µM
How it was run: as §1

[6] = compound: CN(C)CCCOc1ccc(-c2ccc3ncc4c(c3c2)n(C2CCOCC2)c(=O)n4C)cn1 [AZD0156]; conditions: max 3 µM
How it was run: as §1

[7] = compound: COc1cccc2c1C(=O)c1c(O)c3c(c(O)c1C2=O)C[C@@](O)(C(=O)CO)C[C@@H]3O[C@H]1C[C@H](N)[C@H](O)[C@H](C)O1 [Doxorubicin]; conditions: max 1 µM
How it was run: as §1

[8] = compound: Cc1c2c(nn1C)CSCc1cc(n(C)n1)CSc1cc(c3ccccc3c1)OCCCc1c(C(=O)O)n(C)c3c-2c(Cl)ccc13 [AZD5991]; conditions: max 1 µM
How it was run: as §1

[9] = compound: C[C@@H](c1ccc2nccn2c1)n1nnc2ncc(-c3cnn(C)c3)nc21 [Savolitinib]; conditions: max 1 µM
How it was run: as §1

[10] = compound: CCc1c2c(nc3ccc(O)cc13)-c1cc3c(c(=O)n1C2)COC(=O)[C@]3(O)CC [SN-38]; conditions: max 0.3 µM
How it was run: as §1

[11] = compound: Nc1ccn([C@@H]2O[C@H](CO)[C@@H](O)C2(F)F)c(=O)n1 [Gemcitabine]; conditions: max 0.3 µM
How it was run: as §1

[12] = compound: C[C@@H](Oc1cc(-c2cnn(C3CCNCC3)c2)cnc1N)c1c(Cl)ccc(F)c1Cl [Crizotinib]; conditions: max 10 µM
How it was run: as §1

[13] = compound: CC1=CN2[C@@H](C1)C=NC3=CC(=C(C=C3C2=O)OC)OCCCCCOC4=C(C=C5C(=C4)N=C[C@@H]6CC(=CN6C5=O)C)OC [SG3199]; conditions: max 0.001 µM
How it was run: as §1

[14] = compound: CC1(C)CCC(CN2CCN(c3ccc(C(=O)NS(=O)(=O)c4ccc(NCC5CCOCC5)c([N+](=O)[O-])c4)c(Oc4cnc5[nH]ccc5c4)c3)CC2)=C(c2ccc(Cl)cc2)C1 [Venetoclax]; conditions: max 1 µM
How it was run: as §1

[15] = compound: CC(=O)c1c(C)c2cnc(Nc3ccc(N4CCNCC4)cn3)nc2n(C2CCCC2)c1=O [Palbociclib]; conditions: max 10 µM
How it was run: as §1

[16] = compound: COc1cccc(OCCCN)c1-c1cc(Nc2cnc(C#N)cn2)n[nH]1 [Prexasertib]; conditions: max 1 µM
How it was run: as §1

[17] = compound: COc1cc([C@@H]2c3cc4c(cc3[C@@H](O[C@@H]3O[C@@H]5CO[C@@H](C)O[C@H]5[C@H](O)[C@H]3O)[C@H]3COC(=O)[C@H]23)OCO4)cc(OC)c1O [Etoposide]; conditions: max 10 µM
How it was run: as §1

[18] = compound: CC(=O)Nc1cccc(-n2c(=O)n(C3CC3)c(=O)c3c(Nc4ccc(I)cc4F)n(C)c(=O)c(C)c32)c1 [Trametinib]; conditions: max 1 µM
How it was run: as §1

[19] = compound: C1CC(C1)(C(=O)[O-])C(=O)[O-].N.N.[Pt+2] [Carboplatin]; conditions: max 10 µM
How it was run: as §1

[20] = compound: Cc1cc2ncnn2cc1Nc1ncc2c(n1)n(C1CCOCC1)c(=O)n2C [AZD7648]; conditions: max 10 µM
How it was run: as §1

[21] = compound: COc1cc2ncnc(Nc3ccc(F)c(Cl)c3)c2cc1OCCCN1CCOCC1 [Gefitinib]; conditions: max 10 µM
How it was run: as §1

[22] = compound: O=C(c1cc(Cc2n[nH]c(=O)c3ccccc23)ccc1F)N1CCN(C(=O)C2CC2)CC1 [Olaparib]; conditions: max 10 µM
How it was run: as §1

[23] = compound: COc1cc(Nc2ncc3c(n2)-c2ccc(Cl)cc2C(c2c(F)cccc2OC)=NC3)ccc1C(=O)O [Alisertib]; conditions: max 10 µM
How it was run: as §1

[24] = compound: CC(C)n1c(=O)n(C)c2cnc3cc(F)c(-c4ccc(OCCCN5CCCCC5)nc4)cc3c21 [AZD1390]; conditions: max 0.3 µM
How it was run: as §1

[25] = compound: O=C(Nc1ccc2[nH]nc(-c3ccncc3)c2c1)[C@@H]1CCN(CC(=O)N2CCN(c3ccc(-c4ncccn4)cc3)CC2)C1; conditions: max 5 µM
How it was run: as §1

[26] = compound: CS(=O)(=O)CCNCc1ccc(-c2ccc3ncnc(Nc4ccc(OCc5cccc(F)c5)c(Cl)c4)c3c2)o1 [Lapatinib]; conditions: max 10 µM
How it was run: as §1

[27] = compound: C[C@@H](Nc1cc(F)cc(F)c1)c1cc(C(=O)N(C)C)cc2c(=O)cc(N3CCOCC3)oc12 [AZD8186]; conditions: max 10 µM
How it was run: as §1

[28] = compound: N#Cc1cnc(Nc2cc(NC[C@H]3CNCCO3)c(C(F)(F)F)cn2)cn1 [SRA737]; conditions: max 10 µM
How it was run: as §1

[29] = compound: Cc1nc(-c2cn3c(n2)-c2ccc(-c4cnn(C(C)(C)C(N)=O)c4)cc2OCC3)n(C(C)C)n1 [Taselisib]; conditions: max 10 µM
How it was run: as §1

[30] = compound: C[C@@H]1COCCN1C2=NC(=NC(=C2)C3(CC3)[S@](=N)(=O)C)C4=C5C=CNC5=NC=C4 [AZD6738]; conditions: max 10 µM
How it was run: as §1

[31] = compound: CC1=C(C(=CC=C1)Cl)NC(=O)C2=CN=C(S2)NC3=CC(=NC(=N3)C)N4CCN(CC4)CCO [Dasatinib]; conditions: max 2 µM
How it was run: as §1

[32] = compound: Cn1cnc2c(F)c(Nc3ccc(Br)cc3Cl)c(C(=O)NOCCO)cc21 [Selumetinib]; conditions: max 10 µM
How it was run: as §1

[33] = compound: C1CN(CCC1(C(=O)N[C@@H](CCO)C2=CC=C(C=C2)Cl)N)C3=NC=NC4=C3C=CN4 [AZD5363]; conditions: max 10 µM
How it was run: as §1

[34] = compound: COc1nnc2ccc(N3CCC(c4ccc(OCCN5CCN(C)C(=O)[C@H]5C)cc4)CC3)nn12 [AZD5153]; conditions: max 1 µM
How it was run: as §1

[35] = compound: CCN(CCO)CCCOc1ccc2c(Nc3cc(CC(=O)Nc4cccc(F)c4)[nH]n3)ncnc2c1 [AZD2811]; conditions: max 1 µM
How it was run: as §1

Cell Line	IC50, cell viability 72 h [1] [nM]	IC50, cell viability 72 h [2] [nM]	IC50, cell viability 72 h [3] [nM]	IC50, cell viability 72 h [4] [nM]	IC50, cell viability 72 h [5] [nM]	IC50, cell viability 72 h [6] [nM]	IC50, cell viability 72 h [7] [nM]	IC50, cell viability 72 h [8] [nM]	IC50, cell viability 72 h [9] [nM]	IC50, cell viability 72 h [10] [nM]	IC50, cell viability 72 h [11] [nM]	IC50, cell viability 72 h [12] [nM]	IC50, cell viability 72 h [13] [nM]	IC50, cell viability 72 h [14] [nM]	IC50, cell viability 72 h [15] [nM]	IC50, cell viability 72 h [16] [nM]	IC50, cell viability 72 h [17] [nM]	IC50, cell viability 72 h [18] [nM]	IC50, cell viability 72 h [19] [nM]	IC50, cell viability 72 h [20] [nM]	IC50, cell viability 72 h [21] [nM]	IC50, cell viability 72 h [22] [nM]	IC50, cell viability 72 h [23] [nM]	IC50, cell viability 72 h [24] [nM]	IC50, cell viability 72 h [25] [nM]	IC50, cell viability 72 h [26] [nM]	IC50, cell viability 72 h [27] [nM]	IC50, cell viability 72 h [28] [nM]	IC50, cell viability 72 h [29] [nM]	IC50, cell viability 72 h [30] [nM]	IC50, cell viability 72 h [31] [nM]	IC50, cell viability 72 h [32] [nM]	IC50, cell viability 72 h [33] [nM]	IC50, cell viability 72 h [34] [nM]	IC50, cell viability 72 h [35] [nM]
HT-29 (Colorectal Carcinoma)	18	> 1000	> 20000	310	> 10000	> 3000	> 1000	> 1000	> 1000	64.7	161	6730	> 1	> 1000	> 10000	28.3	> 10000	11.9	> 10000	> 10000	> 10000	> 10000	> 10000	> 300	436	> 10000	> 10000	4640	2220	2390	> 2000	1000	> 10000	155	> 1000
KARPAS-1106P (B-Cell Non-Hodgkin's Lymphoma)	134	> 1000	> 20000	495	> 10000	> 3000	146	127	> 1000	3.05	18.3	4000	> 1	> 1000	> 10000	11.2	1790	> 1000	> 10000	> 10000	> 10000	> 10000	> 10000	> 300	> 5000	> 10000	705	2180	462	3960	213	> 10000	> 10000	132	> 1000
